BindingDB's records for doi:10.1021/jm8009124 (University of Connecticut At Storrs, 2008)

Biological target: T1, Bifunctional dihydrofolate reductase-thymidylate synthase (Cryptosporidium parvum, UniProt Q27552)
T1 sequence (Q27552 whole entry): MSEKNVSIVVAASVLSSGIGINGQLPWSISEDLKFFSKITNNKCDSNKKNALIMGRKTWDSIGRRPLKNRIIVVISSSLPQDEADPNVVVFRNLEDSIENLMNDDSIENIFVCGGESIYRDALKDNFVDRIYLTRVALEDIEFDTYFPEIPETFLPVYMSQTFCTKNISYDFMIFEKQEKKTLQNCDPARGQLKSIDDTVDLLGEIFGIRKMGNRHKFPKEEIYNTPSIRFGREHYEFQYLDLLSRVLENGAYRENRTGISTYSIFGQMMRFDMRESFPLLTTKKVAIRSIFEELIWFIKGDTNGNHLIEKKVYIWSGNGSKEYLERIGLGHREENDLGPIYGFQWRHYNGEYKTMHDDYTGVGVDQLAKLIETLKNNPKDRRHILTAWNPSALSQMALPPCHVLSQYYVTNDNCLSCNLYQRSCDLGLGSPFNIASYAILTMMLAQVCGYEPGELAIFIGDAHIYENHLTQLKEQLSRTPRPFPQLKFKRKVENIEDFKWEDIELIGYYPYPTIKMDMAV
Test: DHFR Inhibition Assay
Conditions: pH 7; 25 °C
Experimental: Enzyme activity assays were performed by monitoring the change in UV absorbance at 340 nm. Enzyme assays were performed at least four times. IC50 values and their standard deviations were calculated in the presence of varying ligand concentration.

COc1cc(-c2ccccc2)cc([C@@H](C)C#Cc2c(C)nc(N)nc2N)c1 [5-[(3R)-3-(3-methoxy-5-phenylphenyl)but-1-yn-1-yl]-6-methylpyrimidine-2,4-diamine] was tested, and the IC50 was 1.1 nM.
For COc1cc(C(C)C#Cc2c(C)nc(N)nc2N)ccc1-c1ccccc1 (stereo unspecified) [5-[3-(3-methoxy-4-phenylphenyl)but-1-yn-1-yl]-6-methylpyrimidine-2,4-diamine], the IC50 was 19 nM.
For COc1cc(C(C)C#Cc2c(C)nc(N)nc2N)ccc1-c1ccccc1C (stereo unspecified) [5-{3-[3-methoxy-4-(2-methylphenyl)phenyl]but-1-yn-1-yl}-6-methylpyrimidine-2,4-diamine], the IC50 was 36 nM.
COc1cc(-c2c(C(C)C)cccc2C(C)C)cc(C(C)C#Cc2c(C)nc(N)nc2N)c1 (stereo unspecified) [5-(3-{3-[2,6-bis(propan-2-yl)phenyl]-5-methoxyphenyl}but-1-yn-1-yl)-6-methylpyrimidine-2,4-diamine] was tested, and the IC50 was 10 nM.
COc1cc(-c2ccccc2)cc([C@H](C)C#Cc2c(C)nc(N)nc2N)c1 [5-[(3S)-3-(3-methoxy-5-phenylphenyl)but-1-yn-1-yl]-6-methylpyrimidine-2,4-diamine] showed an IC50 of 30 nM.
For COc1cc(C(C)C#Cc2c(C)nc(N)nc2N)ccc1-c1c(C)cccc1C (stereo unspecified) [5-{3-[4-(2,6-dimethylphenyl)-3-methoxyphenyl]but-1-yn-1-yl}-6-methylpyrimidine-2,4-diamine], the IC50 was 7.4 nM.
